Experimental data: patent US20260199365A1, “BIS-SULFONAMIDE SHIP1 ACTIVATORS” (The Research Foundation for the State University of New York, priority 2022, published 2026)

Biological target: T1, recombinant human truncated SHIP1 (tSHIP1) (Homo sapiens, UniProt Q92835)
T1 construct: tSHIP1 (SHIP1, residues 397-864) was amplified from pET24TEV-tSHIP1; His tag; made in house; host or cells: E. coli BL21
T1 sequence (Q92835 397-864): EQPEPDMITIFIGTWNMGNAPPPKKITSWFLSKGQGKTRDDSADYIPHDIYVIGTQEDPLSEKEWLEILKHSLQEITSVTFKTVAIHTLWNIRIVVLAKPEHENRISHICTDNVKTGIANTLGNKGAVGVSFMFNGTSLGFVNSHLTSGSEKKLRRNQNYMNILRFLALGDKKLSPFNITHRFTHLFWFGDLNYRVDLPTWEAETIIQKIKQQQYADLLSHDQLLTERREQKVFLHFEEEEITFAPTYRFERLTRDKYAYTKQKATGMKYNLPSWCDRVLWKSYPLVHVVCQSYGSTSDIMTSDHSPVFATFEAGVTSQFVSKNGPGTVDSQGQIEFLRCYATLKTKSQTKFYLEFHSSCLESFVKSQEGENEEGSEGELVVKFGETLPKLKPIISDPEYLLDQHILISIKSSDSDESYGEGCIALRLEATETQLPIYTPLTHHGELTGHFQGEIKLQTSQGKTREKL
Test: Malachite Green Phosphatase Release Assay (SHIP1 phosphatase activity)
Type: biochemical
Conditions: for Phosphatase activity in the Malachite Green Assay, analog concentration 125 μM: 125 μM analog; for Phosphatase activity in the Malachite Green Assay, analog concentration 125 μM / Phosphatase activity in the Malachite Green Assay, analog concentration 250 μM / Phosphatase activity in the Malachite Green Assay, analog concentration 500 μM: 100 μM PI(3,4,5)P3-diC8 substrate, normalized to vehicle control (DMSO) = 100%; for Phosphatase activity in the Malachite Green Assay, analog concentration 250 μM: 250 μM analog; for Phosphatase activity in the Malachite Green Assay, analog concentration 500 μM: 500 μM analog, >100% activation, <100% inhibition; for SHIP1 activator activity in the malachite green assay: discussion of Table 4 (125-500 μM)
Experimental: ^aPhosphatase activity for SHIP1 and SHIP2 enzyme as determined in the malachite green assay. Results were normalized to the phosphatase activity level from vehicle control (DMSO) used as 100% activity. Values >100% are attributed to activation, while values <100% show inhibition of the enzyme compared to the control. The assay was performed at the indicated concentration of the small molecule with 100 μM PI(3,4,5)P3-diC8 as the substrate. ^bnd=not determined, compound 23 was insoluble.
Cloning and expression of tSHIP1 of truncated human SHIP1 protein (tSHIP1) from human whole blood mRNA have been previously described (see Brooks R, Iyer, S., Akada, H., Neelam, S., Russo, C. M., Chisholm, J. D., and Kerr W. G. Coordinate Expansion of Murine Hematopoietic and Mesenchymal Stem Cell Compartments by SHIPi Stem Cells 2015; 33:848). Briefly, tSHIP1 (SHIP1, residues 397-864) was amplified from pET24TEV-tSHIP1. Plasmids were extracted with Midi Prep (Qiagen) and sequences were verified by sequencing of the entire expression regions. The plasmids were then transformed into E. coli BL21 (New England Biolabs). Fresh colonies were amplified in 1 L LB at 37° C., shaking at 250 rpm until OD600 nm reached 0.6. Protein expression was induced with […] IPTG and incubation was continued at 16° C., shaking at 250 rpm for 16 h. Following centrifugation, bacteria pellets were stored overnight at −20° C. Protein was extracted form bacterial cell pellet using BugBuster HT (Millipore), according to manufacturer's recommendations. The His-tagged protein was purified by FPLC using HisTrapHP 5 ml column (Cytiva Life Sciences) at a 5 ml/min flow rate and 10 mM-1M imidazole gradient in Buffer A (20 mM Tris pH 8.0, 300 mM NaCl, 10 mM imidazole, 5 mM β-mercaptoethanol). Fractions containing active protein by Malachite Green Phosphatase Release Assay (Echelon, see below) were pooled, concentrated and buffer exchanged to reduce imidazole concentration by centrifugation using Pierce Protein Concentrators 30KMWCO PES, (ThermoFisher Scientific). Protein was aliquoted and stored at −80° C. in a mixture of Buffer A (without β-ME) and 50% glycerol.
Malachite Green Phosphatase Release Assays: Malachite Green Phosphatase Release Assays (Echelon Biosciences) were performed with recombinant human truncated SHIP1 (tSHIP1) (Brooks, 2015) and SHIP2 (Echelon Biosciences). Briefly, serial dilutions of the compounds dissolved in DMSO were added to the recombinant enzymes diluted in reaction buffer Rx (50 mM Hepes pH 7.4, 150 mM NaCl, 1 mM MgCl2, 0.25 mM EDTA) in triplicate reactions in 96-well plates. Reactions were incubated for 2 min at room temperature. […] of 1 mM Phosphatidylinositol 3,4,5-trisphosphate diC8 (PI(3,4,5)P3diC8) (Echelon Biosciences) was added to each reaction to a final concentration of 100 μM in a final volume of […]. Following 20 min incubation at 37° C., 100 μL of Malachite Green Solution (Echelon Biosciences) was added to each well and plates were incubated at room temperature in the dark for 15 min. Plates were then read at 620 nm on a plate reader (Synergy 2, BioTek).

Row | SMILES | Phosphatase activity in the Malachite Green Assay, analog concentration 125 μM [%] | Phosphatase activity in the Malachite Green Assay, analog concentration 250 μM [%] | Phosphatase activity in the Malachite Green Assay, analog concentration 500 μM [%] | SHIP1 activator activity in the malachite green assay
1 | Cc1sc(S(=O)(=O)N2CCSCC2)cc1NC(=O)CNS(=O)(=O)c1ccccc1[N+](=O)[O-] [Compound K391, N-[2-Methyl-5-(thiomorpholine-4-sulfonyl)thiophen-3-yl]-2-(2-nitrobenzenesulfonamido) acetamide] | 117 | 133 | 163 | quite active
2 | Cc1sc(S(=O)(=O)N2CCSCC2)cc1NC(=O)CNS(=O)(=O)c1cccc([N+](=O)[O-])c1 [Compound K392, N-[2-methyl-5-(thiomorpholine-4-sulfonyl)thiophen-3-yl]-2-(3-nitrobenzenesulfonamido) acetamide] | – | 102 | 106 | disappointing
3 | Cc1sc(S(=O)(=O)N2CCSCC2)cc1NC(=O)[C@@H](Cc1ccccc1)NS(=O)(=O)c1ccc(F)cc1 [Compound K395, (2R)-2-(4-Fluorobenzenesulfonamido)-N-[2-methyl-5-(thiomorpholine-4-sulfonyl)thiophen-3-yl]-3-phenylpropanamide] | 112 | 106 | 106 | –
4 | Cc1sc(S(=O)(=O)N2CCSCC2)cc1NC(=O)[C@H](Cc1ccccc1)NS(=O)(=O)c1ccc(F)cc1 [Compound K396, (2S)-2-(4-Fluorobenzenesulfonamido)-N-[2-methyl-5-(thiomorpholine-4-sulfonyl)thiophen-3-yl]-3-phenylpropanamide] | 71 | 74 | 130 | –
5 | O=C(CNS(=O)(=O)c1ccc(F)cc1)Nc1ccc(S(=O)(=O)N2CCSCC2)cc1 [Compound K399, 2-(4-Fluorobenzenesulfonamido)-N-[4-(thiomorpholine-4-sulfonyl)phenyl] acetamide] | 112 | 105 | 130 | Activity was maintained
6 | O=C(CNS(=O)(=O)c1ccc(F)cc1)Nc1cccc(S(=O)(=O)N2CCSCC2)c1 [Compound K400, 2-(4-Fluorobenzenesulfonamido)-N-[3-(thiomorpholine-4-sulfonyl)phenyl]acetamide] | 94 | 97 | 107 | less active
7 | O=C(CNS(=O)(=O)c1ccc(F)cc1)Nc1cc(S(=O)(=O)N2CCSCC2)sc1Cl [Compound K401, N-[2-Chloro-5-(thiomorpholine-4-sulfonyl)thiophen-3-yl]-2-(4-fluorobenzenesulfonamido) acetamide] | 102 | 109 | 125 | nearly equipotent as the parent K306 structure
8 | Cc1sc(S(=O)(=O)N2CCSCC2)cc1NC(=O)CN1C(=O)c2ccccc2S1(=O)=O [Compound K402, N-[2-methyl-5-(thiomorpholine-4-sulfonyl)thiophen-3-yl]-2-(1,1,3-trioxo-2,3-dihydro-1-benzothiazol-2-yl) acetamide] | 109 | 131 | 161 | nearly as potent as 69
